Patent US20210113501A1, “METHOD OF ADMINISTERING BETA-HYDROXY-BETA-METHYLBUTYRATE (HMB)” (Metabolic Technologies, Inc., priority 2009, published 2021)

Experiment: Study 1 blood chemistry
Format: in vivo, human
Conditions: for Gamma-glutamyl: in U/L (unit assumed)
Protocol: Study 1 design. For study 1 the subjects reported to the laboratory in the morning following an overnight fast. Before ingestion of one of the supplemental treatments, a flexible sterile polyethylene catheter was inserted into a forearm vein using sterile procedures and a pre-ingestion blood sample was drawn. Subsequent blood samples were taken at 0, 2, 5, 10, 15, 25, 35, 45, 60, 90, 120 and 180 min after ingestion of the treatment. Plasma was separated and samples were stored frozen at −70° C. for analysis of HMB concentration. In addition, a portion of the pre-ingestion and 180 minute blood samples were used for measurements (LabCorp, Kansas City, Mo.) of glucose, uric acid, blood urea nitrogen (BUN), creatinine, sodium, potassium, chloride, carbon dioxide, phosphorous, protein, albumin, globulin, albumin:globulin ratio, total bilirubin, direct bilirubin, alkaline phosphatase, lactate dehydrogenase, aspartate aminotransferase (AST), alanine aminotransferase (ALT), gamma-glutamyl transpeptidase (GGT), iron binding capacity (TIBC), unsaturated iron binding capacity (UIBC), iron, iron saturation, total cholesterol, triglycerides, high density lipoprotein (HDL), low density lipoprotein (LDL), and cholesterol ratio. A complete blood count (CBC) was also performed before and after the 180 min treatment period. Subjects also completed a brief questionnaire to report any physical symptoms (such as nausea, headache, etc) they may have experienced during the experiment.
The data were analyzed using a crossover design with Proc GLM in SAS. (45) For the timed sampling of plasma HMB a repeated measures polynomial model was used. The model included subject, order, and treatment main effects and time by treatment interaction where appropriate. For other parameters Proc GLM was also used with subject, order, and treatment main effects and the p values are reported for the treatment main effect. Statistical significance was determined for p<0.05 and a trend was determined for 0.05<p<0.10.

In the case of `CC(C)(O)CC(=O)[O-].CC(C)(O)CC(=O)[O-].[Ca+2]` [CaHMB, calcium β-hydroxy-β-methylbutryate, reference compound], the “A:G Ratio” value (After (180 min)) is reported as 1.7 ± 0.1, the “Alanine Aminotransferase” value (After (180 min)) is reported as 15.6 ± 2.0 IU/L and the Albumin (After (180 min)) is reported as 4.1 ± 0.1 g/dL. For the same compound, the “Alkaline Phosphatase” value (After (180 min)) was 68.4 ± 8.4 IU/L, the “Aspartate Aminotransferase” value (After (180 min)) was 22.4 ± 1.8 IU/L and the “Blood Urea Nitrogen” value (After (180 min)) was 11.3 ± 0.9 mg/dL. The CO2 (After (180 min)) was 24.8 ± 0.5 mEq/L, the Chloride (After (180 min)) was 103.1 ± 0.7 mEq/L and the “Cholesterol Ratio” value (After (180 min)) was 3.0 ± 0.1. The Creatinine (After (180 min)) was 0.9 ± 0.1 mg/dL, the “Direct Bilirubin” value (After (180 min)) was 0.1 ± 0.01 mg/dL and the Globulin (After (180 min)) was 2.5 ± 0.2 g/dL. The Glucose (After (180 min)) was 76.4 ± 3.2 mg/dL, the HDL (After (180 min)) was 53.1 ± 3.8 mg/dL and the Iron (After (180 min)) was 93.0 ± 16.8 µg/dL. The “Iron Binding Capacity” value (After (180 min)) was 342.8 ± 35.9 µg/dL, the “Iron Saturation” value (After (180 min)) was 31.1 ± 8.9% and the LDL (After (180 min)) was 86.5 ± 5.7 mg/dL. For the same compound, the “Lactate Dehydrogenase” value (After (180 min)) was 165.6 ± 10.7 IU/L, the Phosphorus (After (180 min)) was 3.5 ± 0.3 mg/dL and the Potassium (After (180 min)) was 4.7 ± 0.2 mEq/L. The Protein (After (180 min)) was 6.5 ± 0.3 g/dL, the Sodium (After (180 min)) was 139.4 ± 0.8 mEq/L and the “Total Bilirubin” value (After (180 min)) was 0.5 ± 0.08 mg/dL. For the same compound, the “Total Cholesterol” value (After (180 min)) was 153.9 ± 9.7 mg/dL, the Triglycerides (After (180 min)) was 71.6 ± 11.2 mg/dL and the UIBC (After (180 min)) was 249.8 ± 47.7 µg/dL. The “Uric Acid” value (After (180 min)) was 4.5 ± 0.4 mg/dL, the Gamma-glutamyl (After (180 min)) was 13.1 ± 0.9 and the “A:G Ratio” value (Before) was 1.8 ± 0.1. The “Alanine Aminotransferase” value (Before) was 14.1 ± 1.5 IU/L, the Albumin (Before) was 4.0 ± 0.1 g/dL and the “Alkaline Phosphatase” value (Before) was 66.5 ± 6.5 IU/L. For the same compound, the “Aspartate Aminotransferase” value (Before) was 21.4 ± 1.5 IU/L, the “Blood Urea Nitrogen” value (Before) was 12.1 ± 1.0 mg/dL and the CO2 (Before) was 23.4 ± 0.6 mEq/L. For the same compound, the Chloride (Before) was 103.3 ± 0.6 mEq/L, the “Cholesterol Ratio” value (Before) was 3.0 ± 0.1 and the Creatinine (Before) was 0.9 ± 0.1 mg/dL. The “Direct Bilirubin” value (Before) was 0.1 ± 0.02 mg/dL, the Globulin (Before) was 2.3 ± 0.2 g/dL and the Glucose (Before) was 72.6 ± 1.6 mg/dL. The HDL (Before) was 51.3 ± 3.2 mg/dL, the Iron (Before) was 83.3 ± 16.7 µg/dL and the “Iron Binding Capacity” value (Before) was 330.4 ± 32.9 µg/dL. The “Iron Saturation” value (Before) was 29.9 ± 9.5%, the LDL (Before) was 86.1 ± 5.3 mg/dL and the “Lactate Dehydrogenase” value (Before) was 160.9 ± 9.5 IU/L. For the same compound, the Phosphorus (Before) was 3.9 ± 0.2 mg/dL, the Potassium (Before) was 4.1 ± 0.1 mEq/L and the Protein (Before) was 6.3 ± 0.2 g/dL. The Sodium (Before) was 139.1 ± 0.5 mEq/L, the “Total Bilirubin” value (Before) was 0.5 ± 0.07 mg/dL and the “Total Cholesterol” value (Before) was 153.4 ± 9.1 mg/dL. For the same compound, the Triglycerides (Before) was 80.4 ± 11.6 mg/dL, the UIBC (Before) was 247.1 ± 45.0 µg/dL and the “Uric Acid” value (Before) was 4.5 ± 0.3 mg/dL. For the same compound, the “A:G Ratio % Change” value (Before to After) was −8.9%, the “Alanine Aminotransferase % Change” value (Before to After) was 10.6% and the “Albumin % Change” value (Before to After) was 0.3%. The “Alkaline Phosphatase % Change” value (Before to After) was 2.8%, the “Aspartate Aminotransferase % Change” value (Before to After) was 4.7% and the “Blood Urea Nitrogen % Change” value (Before to After) was −7.2%. For the same compound, the “CO2 % Change” value (Before to After) was 5.9%, the “Chloride % Change” value (Before to After) was −0.1% and the “Cholesterol Ratio % Change” value (Before to After) was −2.5%. For the same compound, the “Creatinine % Change” value (Before to After) was 0.5%, the “Direct Bilirubin % Change” value (Before to After) was 5.8% and the “Gamma-glutamyl % Change” value (Before to After) was −4.5%. For the same compound, the “Globulin % Change” value (Before to After) was 8.2%, the “Glucose % Change” value (Before to After) was 5.2% and the “HDL % Change” value (Before to After) was 3.7%. The “Iron % Change” value (Before to After) was 11.7%, the “Iron Binding Capacity % Change” value (Before to After) was 3.7% and the “Iron Saturation % Change” value (Before to After) was 4.2%. The “LDL % Change” value (Before to After) was 0.4%, the “Lactate Dehydrogenase % Change” value (Before to After) was 3.0% and the “Phosphorus % Change” value (Before to After) was −10.8%. The “Potassium % Change” value (Before to After) was 13.4%, the “Protein % Change” value (Before to After) was 3.2% and the “Sodium % Change” value (Before to After) was 0.2%. The “Total Bilirubin % Change” value (Before to After) was 7.9%, the “Total Cholesterol % Change” value (Before to After) was 0.3% and the “Triglycerides % Change” value (Before to After) was −10.9%. For the same compound, the “UIBC % Change” value (Before to After) was 1.1%, the “Uric Acid % Change” value (Before to After) was −1.4% and the Gamma-glutamyl (Before) was 13.8 ± 0.9.
